# Reference: US20060194819A1, “Activation specific inhibitors of nf-kb and method of treating inflammatory processes in cardio-vascular diseases” (PROCORDE GMBH, priority 2003, published 2006)
# Read-outs that look alike come from different tables or passages of the source.
# Assays:
# [1] = tested on: I KappaB alpha phosphorylation; assay: P-IkBalpha detection in Western blot of HeLa cell lysates after TNF alpha stimulation; format: cell-based; conditions: HeLa cells, 10 and 100 μM
# Procedure: P-IkBα Detektion in Western-Blot Protocol: HeLa cells were maintained in Dulbecco's modified Eagle's medium (Invitrogen) supplemented with 10% fetal bovine serum, 2 mM L-glutamine, penicillin (50 units/ml) and streptomycin (50 μg/ml). 24 h before treatment with different compounds HeLa cells were plated at a density of 5×10^6 per well in 100-mm cell culture dishes to 90% confluences.
# The cells were incubated with different drugs at the concentration indicated for 1 h, washed twice with PBS and stimulated with 20 ng/ml TNF alpha (Roche). After 7 min the cells were washed twice with ice cold PBS followed by scraping and transferring into a 1.5 ml micro centrifuge tube. After centrifugation by 2000 rpm for 2 min by 4° C. the PBS supernatant was removed and 200 μl lysis-buffer (10 mM Hepes, pH 7.9, 0.1% NP40, 10 mM, 300 mM Sucrose, 10 mM KCl, 15 mM MgCl2, 1 mM DTT, 0.5 mM PMSF and antipain, aprotinin, leupeptin each 0.75 μg/ml (Sigma) was added to the pellet. The resuspended pellet was incubated on ice for 5 min and centrifuged at 13000 g for 30 s. 30 μl of the supernatant, cytosolic extract, was diluted with Laemmli-buffer (2% SDS, 2% 2-Mercaptoethanol, 0.01% Bromophenol blue, 8% Glycerine), heated by 60° C. for 10 min and loaded to a 4-20% polyacrylamid gels (BioRad). After electrophoresis the proteins were transferred to a nitrocellulose membrane using the wet blotting technique. First the membrane was blocked with Roti-Block (Roth) and afterwards incubated with monoclonal antibodies against P-IkBalpha (Santa Cruz Biotechnology, used at 1:200 dilution). This incubation was followed by the appropriate horseradish peroxidase-conjugated secondary antibody (Dianova) at 1:10000 dilution. Antibody binding was visualized on x-ray film using the Western blot Chemiluminescent Reagent Detection Kit (Santa Cruz).
# HeLa cells = assay: Cell viability, WST-1 assay; format: cell-based
# Procedure: […] The medium was changed and 10 μL of the WST-1 reagent was added to each well. After 2 h the absorption of 450 nm was measured in an Elisa-reader.
# [2] = tested on: ICAM expression in HUVEC cells; assay: ICAM expression in HUVEC cells by FACS analysis; format: cell-based; conditions: Homo sapiens, read-out: IC50 for inhibition of ICAM expression
# Procedure: HUVEC cells were seeded in 6-well plates 1×10^6 cells/well. After 24 h the cells were treated with different concentration of compound 68. After 1 h the medium was removed and the cells incubated with either IL-1 (100 pg/ml) or TNF alpha (1 ng/ml) for a total of 4 h. Thereafter the cells were harvested with trypsin, washed with PBS and centrifuged with 1000 rpm for 5 min. The pellet was resuspended in 50 μl PBS and 5 μl CD54-PE antibody (anti-ICAM antibody from Beckman/Coulter/Immunotech). After washing twice in PBS, the ICAM cell surface expression was analysed by a FACScan (Becton Dickinson).
# [3] = Solubility tests, 1.2 mg in 500 μl of each solvent; format: physicochemical
# Procedure: Solubility tests were performed with aliquots of compound 4 (1.2 mg) and 500 μl of each solvent.
# [4] = Isomerization in solution observed by NMR; format: physicochemical
# Source text: These signals were tentatively attributed to a cis/trans isomer of compound 4. The signal intensities of this isomer accounted for approximately 10% of the signals due to the major product. In acetone-db, this isomerization was slower and occurred within days.
# NF-kappaB = assay: Electrophoretic mobility shift assay (EMSA) for NF-kappaB in LPS stimulated THP-1 monocytic cells; format: cell-based; conditions: THP-1 cells; for NF-kappaB activation: LPS
# Procedure: Electrophoretic Mobility Shift Assay (EMSA): THP-1 monocytic cells (DSM, Braunschweig, Germany) were maintained in suspension in RPMI 1640 (Glutamax-1, low endotoxin) containing 7% fetal calf serum (FCS) (Myoclone super plus, low endotoxin), 100 units/ml penicillin, and […] streptomycin (Life Technologies, Inc., Eggenstein, Germany). For the experiments, the cells were plated at a density of 3×10^6 per well in 6-well culture dishes. Nuclear extracts were prepared by harvesting cells by centrifugation at 1200 rpm for 7 min at 4° C. The cells were resuspended by adding 1 ml ice cold PBS and transferred into a microcentrifuge tube. After centrifugation at 2000 g for 2 min by 4° C. the pellet was lysed in 50 μl buffer A (10 mM Hepes, pH 7.9, 0.1% NP40, 10 mM, 300 mM Sucrose, 10 mM KCl, 15 mM MgCl2, 1 mM DTT, 0.5 mM PMSF and antipain, aprotinin, leupeptin each 0.75 μg/ml (Sigma)). After 5 min incubation on ice and centrifugation at 16000 g for 5 sec the pellet was washed with 100 μl buffer A. The nuclear pellet was resuspended with 100 μl buffer B (20 mM Hepes, pH 7.9, 100 mM KCl, 100 mM NaCl, 1 mM DTT, 20% Glycerol, 0.5 mM PMSF and antipain, aprotinin, leupeptin each 0.75 μg/ml (Sigma)) and sonicated for 10 sec. The probe was pulse centrifuged at 16000 g for 5 sec. The nuclear extract was aliquoted and snap-freeze in liquid N2. Nuclear extracts ([…] of protein) were incubated with radiolabeled DNA probes (10 ng; 10^5 cpm) for 30 min at room temperature in […] of binding buffer (20 mM HEPES, pH 7.9, 50 mM KCl, 1 mM dithiothreitol, 0.5 mM EDTA, 10% glycerol, 1 mg/ml bovine serum albumin, 0.2% Nonidet P-40, 50 ng of poly(dI-dC)/ml). […] The binding of Sp-1 and AP-1 was also analysed by EMSA using specific consensus oligonucleotides (Promega, Heidelberg, Germany) that were labeled with [γ-^32P]ATP (>5,000 Ci/mmol, NEN Life Science Products) and T4 polynucleotide kinase (Boehringer Mannheim). Gels were dried and analysed by autoradiography. […]
SMILES,"effect on IkappaB phosphorylation (Western blot), comparison of COM 73 and COM 54 family [1]","cell viability (WST staining) (HeLa cells; HeLa cells, 33 and 100 μmol/L, one day)",IC50 ([2]; after IL-1 stimulation (100 pg/ml)) [µM],IC50 ([2]; after TNF alpha stimulation (1 ng/ml)) [µM],Solubility ([3]; Acetone),Solubility ([3]; DMSO),Solubility ([3]; H2O),Solubility ([3]; MeCN),Solubility ([3]; MeOH),"signal intensities of the isomer relative to the major product ([4]; DMSO-d6, rt)","time to appearance of second set of NMR signals (cis/trans isomer) ([4]; DMSO-d6, rt)",time of isomerization ([4]; acetone-d6),NF-kappaB activation (NF-kappaB; 12.5 μM and 25 μM),NF-kappaB activation (NF-kappaB; 50 μM and 100 μM),"reduced NF-kappaB-release (NF-kappaB; 100 μM, 1 h, LPS 1 μg/ml) [%]","decrease in metabolic activity compared with untreated control (WST-1) (HeLa cells; HeLa cells, 30 μM, 3 h)","influence on cell viability (WST staining) (HeLa cells; HeLa cells, 0.3 to 100 μmol/L, one day)",toxicity for HeLa cells (WST-1) (HeLa cells; concentrations and conditions of the described assays)
"O=C(NN=Cc1ccccc1O)c1ccc([N+](=O)[O-])o1 [COM 68, 5-Nitro-furan-2-carboxylic acid (2-hydroxy-benzylidene)-hydrazide]",no effect,decreased cell viability,7.8,4.5,++++ (++++: 100% dissolved),++++ (++++: 100% dissolved),− (−: 0% dissolved),+++ (+++: 80% dissolved),+ (+: 20% dissolved),approximately 10%,within minutes,within days,,,,,,
O=C(N/N=C/c1ccc(/C=N/NC(=O)c2ccc([N+](=O)[O-])o2)cc1)c1ccc([N+](=O)[O-])o1 [Compound 54],no effect,,,,,,,,,,,,significantly affected,nearly completely abolished,95,no significant decrease,no negative influence,not found to be toxic
